The values below come from US9974782B2, “Phosphodiesterase inhibitors and uses thereof” (THE TRUSTEES OF COLUMBIA UNIVERSITY IN THE CITY OF NEW YORK, priority 2008, dated 2018).

Entries after “also recorded” stand apart in the source; their conditions may differ. Read-outs that look alike come from different tables or passages of the source. Some results are limits rather than exact numbers.

Data set [1] concerns human Aβ40 and Aβ42 levels. The conditions noted are these: rolipram, earlier study; cited from earlier work.
The conditions of data set [2]: rat, in vivo; cited from earlier work.
Data set [3] has as its target PDE5 (Homo sapiens, UniProt O76074). The settings on record: cited from earlier work.
Data set [4] has as its system CA1 region of hippocampal slices from APP/PS1 and WT mice. The data set can be described thus: Electrophysiological analysis (BST, LTP) of hippocampal slices perfused with inhibitor. In kind it is cell-based, mouse.
In data set [5] the test system is APP/PS1 mice. Nature of the data set: Contextual and cued fear conditioning. In kind it is in vivo, mouse. The settings on record: for effect on contextual fear memory in words: APP/PS1 (transgenic) mice. The procedure:
Given that sildenafil reversed LTP deficits in 3-month-old APP/PS1, it was then tested whether the inhibitor reversed the cognitive defects in these animals. As reported above sildenafil offers the advantage of crossing the BBB and therefore it can be easily utilized in behavioural experiments. Three-month-old mice were divided into 4 groups: APP/PS1 with sildenafil, APP/PS1 with vehicle, WT with sildenafil and WT with vehicle. Sildenafil and vehicle control solutions were administered i.p. at a concentration of 3 mg/kg. This concentration was chosen based on previous studies showing that these amounts of sildenafil raise hippocampal cGMP levels and improve memory in aged rats^A6 and mice^A7 independent of vascular effects^A6. The effects of acute administration of sildenafil was first examined on fear-conditioning learning, a type of learning that is impaired in several AD mouse models^A14 and depends on hippocampus and amygdala. The hippocampus is indispensable for contextual fear conditioning^A15, a form of associative learning in which mice must associate a neutral stimulus with an aversive one. Mice were trained to associate neutral stimuli with an aversive one. They were placed in a new context (fear conditioning box), exposed to a white noise cue (CS) paired with a mild foot shock (US), and injected with sildenafil immediately after the training. Fear learning was assessed twenty-four hours later by measuring freezing behaviour—the absence of all movement except for that necessitated by breathing—in response to representation of the context or of the auditory cue within a completely different context. No difference was found in the freezing behaviour among the four groups of mice before the training phase (FIG. 2A). Twenty-four hours later, a decrease in the freezing behaviour of vehicle-treated APP/PS1 mice compared with that of vehicle-treated WT littermates in the analysis of the contextual learning was observed (FIG. 2A). […] Fear conditioning, a hippocampus-independent task A^15, was next tested and no difference in freezing among the 4 groups was found, as APP/PS1 mice are known to have a selective hippocampus-dependent impairment in associative learning^A14.
Sildenafil was tested to determine whether a brief course of treatment can provide long term benefits. The PDE5 inhibitor was examined to see if it maintains its protective effect against synaptic dysfunction and memory loss. In these experiments, both APP/PS1 and WT mice of 3 months of age were injected intraperitoneally with 3 mg/kg/day sildenafil for 3 weeks, then the treatment was stopped for 9-12 weeks prior to testing. The mice were next subjected to training for contextual learning. […] There were no differences between the 4 groups in the cued conditioning test.
Three-month-old APP/PS1 and WT mice were separated into 4 groups: APP/PS1 mice treated with vehicle, APP/PS1 mice treated with PDE inhibitor, WT mice treated with vehicle, and WT mice treated with PDE inhibitor. […] In the remaining experiments, sildenafil was injected via i.p. The drug was administered either acutely or for 1 course of 3 week treatment. For assessment of the short-term effects of sildenafil, the drug was given at a concentration of 3 mg/kg immediately after the training. This dose yields concentrations of ˜2.5 μM cGMP in the hippocampus^A53. For assessment of long-term effects, sildenafil was given daily by i.p. injection at a concentration of 3 mg/kg for 3 weeks and then treatment was stopped for 9-12 weeks prior to behavioral testing. Contextual and cued fear conditioning was performed for 3 days. Radial-arm water-maze (RAWM) was performed for 3 weeks. Then, the animals were sacrificed for electrophysiological recordings. To decide the time of administration of sildenafil in the acute experiments, a series of studies was performed in which the inhibitor was injected i.p. at 5 min before the electric shock or at 5 min before the first acquisition trial with the radial arm water maze. […]

The test system of data set [6] is APP/PS1 mice. Nature of the data set: Radial-arm water maze (spatial working memory). In kind it is in vivo, mouse. The conditions noted are these: APP/PS1 (transgenic) mice. The text has this:
Next, the effect of treatment with sildenafil was examined on spatial working memory, a type of short-term memory that can be studied with the radial-arm water maze test. […] Mice were required to learn and memorize the location of a hidden platform in one of the arms of a maze with respect to spatial cues. […] However, daily injections of sildenafil for 3 weeks immediately after the 4th acquisition trial ameliorated the behavioural performance of APP/PS1 mice (FIG. 2B).
The effects of one course of 3-week treatment with sildenafil on spatial working memory were next tested using the radial-arm water-maze task. There was a difference between the number of errors made by vehicle-treated APP/PS1 and WT mice (FIG. 3B)^A12. Administration of sildenafil for 3 weeks, 9-12 weeks prior to the testing, reduced the gap between the two groups without affecting performance of the WT animals (FIG. 3B).
Three-month-old APP/PS1 and WT mice were separated into 4 groups: APP/PS1 mice treated with vehicle, APP/PS1 mice treated with PDE inhibitor, WT mice treated with vehicle, and WT mice treated with PDE inhibitor. […] In the remaining experiments, sildenafil was injected via i.p. The drug was administered either acutely or for 1 course of 3 week treatment. For assessment of the short-term effects of sildenafil, the drug was given at a concentration of 3 mg/kg immediately after the training. This dose yields concentrations of ˜2.5 μM cGMP in the hippocampus^A53. For assessment of long-term effects, sildenafil was given daily by i.p. injection at a concentration of 3 mg/kg for 3 weeks and then treatment was stopped for 9-12 weeks prior to behavioral testing. Contextual and cued fear conditioning was performed for 3 days. Radial-arm water-maze (RAWM) was performed for 3 weeks. Then, the animals were sacrificed for electrophysiological recordings. To decide the time of administration of sildenafil in the acute experiments, a series of studies was performed in which the inhibitor was injected i.p. at 5 min before the electric shock or at 5 min before the first acquisition trial with the radial arm water maze. […] Thus, all the behavioral experiments on the acute effects of sildenafil reported in the result section were performed with injection after the training.
This is a type of short-term memory that can be studied with the RAWM test^12. Briefly, the RAWM consisted of a white tank (120 cm diameter) filled with water (24-25° C.) and made opaque by the addition of non-toxic white paint. Within the tank walls were positioned so as to produce six arms, radiating from a central area. Spatial cues were presented on the walls of the testing room. At the end of one of the arms was positioned a clear 10 cm submerged (1.5 cm) platform that remained in the same location for every trial in one day, but was moved about randomly from day to day. On each trial the mouse started the task from a different randomly chosen arm. […] Each trial lasted 1 min and errors were counted each time the mouse entered the wrong arm or needed more than 20 sec to reach the platform. After each error the mouse was pulled back to the start arm for that trial. After 4 consecutive acquisition trials, the mouse was placed in its home cage for 30 min, then returned to the maze and administered a 5th retention trial. Testing was considered completed as the WT mice made the same number of errors at the 4th and 5th trial. The scores for each mouse on the last three days of testing were averaged and used for statistical analysis.

For data set [7] the following is noted: in vivo, cited from earlier work.
Data set [8] relates to PDE1. The settings on record: cited from earlier work.
Data set [9] concerns PDE6. The conditions noted are these: cited from earlier work.
Data set [10] concerns the target PDE2 (Homo sapiens, UniProt O00408). The settings on record: cited from earlier work.
The subject of data set [11] is PDE3. The settings on record: cited from earlier work.
For data set [12], the system named is PDE4. The settings on record: cited from earlier work.
The test system of data set [13] is isolated rabbit corpus cavernosum. The conditions noted are these: read-out: EC50, relaxant effect; cited from earlier work.
[14] abbreviates: WT slices, 120 min after tetanus, sildenafil 50 nM, tadalafil 50 nM, IC354 1 μM.
Setting [15] is: WT slices, sildenafil or tadalafil 50 nM.
[16] abbreviates: slices of 3-month-old APP/PS1 mice, 120 min after tetanus, 10 min perfusion (sildenafil 50 nM, tadalafil 50 nM, IC354 1 μM).
Setting [17] is: 3 month-old WT, sildenafil 3 mg/Kg or tadalafil 1 mg/Kg i.p.

Chain of PDE2 (O00408 whole entry): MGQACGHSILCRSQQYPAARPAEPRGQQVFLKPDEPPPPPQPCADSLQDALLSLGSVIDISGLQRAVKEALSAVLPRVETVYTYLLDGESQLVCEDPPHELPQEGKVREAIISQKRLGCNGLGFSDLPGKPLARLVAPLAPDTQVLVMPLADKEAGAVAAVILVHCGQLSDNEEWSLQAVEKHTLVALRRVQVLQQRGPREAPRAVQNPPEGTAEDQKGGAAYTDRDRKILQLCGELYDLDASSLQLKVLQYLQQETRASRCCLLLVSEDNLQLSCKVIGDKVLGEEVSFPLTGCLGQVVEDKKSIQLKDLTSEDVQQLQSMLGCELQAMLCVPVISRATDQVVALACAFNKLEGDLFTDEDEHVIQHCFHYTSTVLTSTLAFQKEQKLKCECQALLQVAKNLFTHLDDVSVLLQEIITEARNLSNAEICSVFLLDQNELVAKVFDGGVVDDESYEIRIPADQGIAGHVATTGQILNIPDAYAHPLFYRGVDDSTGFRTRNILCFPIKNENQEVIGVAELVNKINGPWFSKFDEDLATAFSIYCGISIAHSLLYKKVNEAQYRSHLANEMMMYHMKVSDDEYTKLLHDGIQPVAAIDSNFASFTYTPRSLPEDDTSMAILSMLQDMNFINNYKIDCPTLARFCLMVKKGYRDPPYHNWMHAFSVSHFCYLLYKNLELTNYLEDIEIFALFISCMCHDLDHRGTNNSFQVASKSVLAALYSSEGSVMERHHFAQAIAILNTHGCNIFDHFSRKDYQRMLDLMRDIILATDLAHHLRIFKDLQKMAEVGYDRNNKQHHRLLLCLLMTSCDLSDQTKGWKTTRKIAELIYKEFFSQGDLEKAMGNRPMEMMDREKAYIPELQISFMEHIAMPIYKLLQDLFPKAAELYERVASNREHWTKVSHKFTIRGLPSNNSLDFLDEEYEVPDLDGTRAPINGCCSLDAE

For the compound `COc1ccc(C2CNC(=O)C2)cc1OC1CCCC1` (stereo not drawn) [rolipram], the “effect on Aβ in brains of APP/PS1 mice in words” value in [1] is on record as “did not affect Aβ concentration; also recorded: did not affect Aβ load”.
On to `Cc1cc(-c2ccccc2)nnc1NCCN1CCOCC1` [minaprine], for which the brain/blood ratio in [2] is given as over 2.
Take `CCOC(=O)c1cc2c(cn1)[nH]c1ccccc12` [beta-CCE, Ethyl beta-carboline-3-carboxylate]: in data set [3], the “PDE5 inhibition in words” value was “weak, non-selective PDE5 inhibitor”.
`CN1CC(=O)N2C(Cc3c([nH]c4ccccc34)C2c2ccc3c(c2)OCO3)C1=O` (stereo not drawn) [tadalafil, 6-benzo[1,3]dioxol-5-yl-2-methyl-2,3,6,7,12,12a-hexahydro-pyrazino[1′,2′:1,6]pyrido[3,4-b]indole-1,4-dione]: the “LTP, fEPSP slope as % of baseline” value is recorded as 232.45±21.92% in [4] (setting [14]) and 209.49±13.89% in [4] (setting [16]). In addition, the “level of LTP as % of vehicle-treated WT slices” value in data set [4] (setting [14]) is reported as about 106%. Further, in data set [4] (setting [15]), the “basal synaptic responses without tetanus as % of vehicle-treated WT slices” value is recorded as about 98%. Besides, the “basal synaptic responses without tetanus, fEPSP % of baseline” value in [4] (setting [15]) was found to be 103.65±1.63%. The “effect on LTP impairment in words” value in data set [4] (slices from APP/PS1 (transgenic) mice, 10 min prior to tetanus) was “reverses LTP impairment”. For the same compound, the “level of LTP as % of vehicle-treated WT littermates” value in data set [4] (setting [16]) is about 96%. Moreover, the contextual freezing time in data set [5] (3 month-old APP/PS1, sildenafil 3 mg/Kg or tadalafil 1 mg/Kg i.p., 24 hrs after training) turned out to be 18.76±3.89%; in data set [5] (setting [17]) it was 28.29±3.30%. In data set [5] (3 month-old APP/PS1, tadalafil 1 mg/Kg i.p.), the “contextual freezing time as % of vehicle-treated APP/PS1 mice” value is about 122%. In data set [5] (setting [17]), the “contextual freezing as % of vehicle-treated WT mice” value is about 85%. Moreover, the “effect on contextual fear memory in words” value in [5] is “does not modify contextual fear conditioning”; in data set [5] (listed as Tadalafil), “did not improve associative learning”. The “effect on spatial working memory (RAWM) in words” value in [6] was “does not improve spatial working memory”; in [6] (listed as Tadalafil) it was “did not improve”. Besides, the “ability to cross the BBB in words” value in [7] is given as “unlikely to cross it; also recorded: does not cross it”; in data set [7] (listed as Tadalafil), “does not cross it”.
Regarding `COC(=O)c1c(-c2cc(OC)c(OC)c(OC)c2)c2ccc(OCc3ccccn3)cc2c(=O)n1-c1ccc(N)cc1.O=S(=O)(O)O` [T1032], in [3] (read-out: IC50 against PDE5), the 50% inhibitory concentration (IC50) is under 1 nM. In addition, the “selectivity ratio for PDE1 (PDE1/PDE5)” value in data set [8] is listed as 1300. For the same compound, the “selectivity ratio for PDE6 (PDE6/PDE5)” value in [9] was 28. In data set [10], the PDE2/PDE5 is > 10 000. The PDE3/PDE5 in data set [11] is reported as > 10 000. Also, the PDE4/PDE5 in data set [12] is 4700. Also, the EC50 in data set [13] was 7.9 nM.

In general, IC50 refers to the concentration that inhibits the measured activity by half. Usually EC50 stands for the concentration giving half of the maximal effect.
